Test results taken from the supplement of paper PMC10307832.

Key:
Assay in all cases: relative viability (nuclei count vs DMSO), 5 days (fraction); higher = more cells survive
[1] = compound: O=c1[nH]cc(F)c(=O)[nH]1 [5-Fluorouracil] + CC(=O)c1c(C)c2cnc(Nc3ccc(N4CCNCC4)cn3)nc2n(C2CCCC2)c1=O [Palbociclib] (partner 0.5 µM)
Method in brief: (§1)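 Dosing by pin tool came one day after lung cancer cell lines were seeded in 1536-well plates, using either one drug or a fixed anchor-drug dose plus five library-drug doses (not always all listed) in √10 steps. After 5 days, nuclei were counted on 4× images. Relative viability is treated-well nuclei count divided by vehicle-well nuclei count, and values are medians of duplicate plates.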

[2] = compound: CN[C@@H]1C[C@H]2O[C@@](C)([C@@H]1OC)n1c3ccccc3c3c4c(c5c6ccccc6n2c5c31)C(=O)NC4 [Staurosporine] + C[C@]1(O)C[C@@H](c2nc(-c3ccc4ccc(-c5ccccc5)nc4c3)c3c(N)nccn32)C1 [Linsitinib] (partner 1 µM)
Method in brief: as §1

[3] = compound: CN[C@@H]1C[C@H]2O[C@@](C)([C@@H]1OC)n1c3ccccc3c3c4c(c5c6ccccc6n2c5c31)C(=O)NC4 [Staurosporine] + CS(=O)(=O)N1CCN(Cc2cc3nc(-c4cccc5[nH]ncc45)nc(N4CCOCC4)c3s2)CC1 [Pictilisib] (partner 1 µM)
Method in brief: as §1

[4] = compound: O=c1[nH]cc(F)c(=O)[nH]1 [5-Fluorouracil] + Nc1nc2[nH]cc(CCc3ccc(C(=O)N[C@@H](CCC(=O)O)C(=O)O)cc3)c2c(=O)[nH]1 [Pemetrexed] (partner 0.2 µM)
Method in brief: as §1

Cell Line | relative viability ([1]; first compound 0.02 µM) | relative viability ([1]; first compound 0.2 µM) | relative viability ([1]; first compound 0.6325 µM) | relative viability ([1]; first compound 2 µM) | relative viability ([2]; first compound 0.005 µM) | relative viability ([2]; first compound 0.05 µM) | relative viability ([2]; first compound 0.1581 µM) | relative viability ([2]; first compound 0.5 µM) | relative viability ([3]; first compound 0.005 µM) | relative viability ([3]; first compound 0.05 µM) | relative viability ([3]; first compound 0.5 µM) | relative viability ([4]; first compound 0.02 µM) | relative viability ([4]; first compound 0.2 µM) | relative viability ([4]; first compound 0.6325 µM) | relative viability ([4]; first compound 2 µM) | relative viability ([2]; first compound 0.01581 µM) | relative viability ([3]; first compound 0.01581 µM) | relative viability ([3]; first compound 0.1581 µM)
NCI-H1915 | 0.485 | 0.522 | 0.498 | 0.383 | 1.11 | 0.61 | 0.486 | 0.342 | 0.719 | 0.35 | 0.0773 | 0.395 | 0.542 | 0.421 | 0.419 |  |  | 
NCI-H650 | 0.316 | 0.278 | 0.244 | 0.263 | 0.472 | 0.249 | 0.197 | 0.177 | 0.416 | 0.344 | 0.233 | 0.762 | 0.649 | 0.36 | 0.317 | 0.289 | 0.297 | 0.24
NCI-H441 | 0.238 | 0.264 | 0.178 | 0.249 | 0.304 | 0.153 | 0.153 | 0.141 | 0.426 | 0.178 | 0.12 | 0.262 | 0.27 | 0.235 | 0.239 | 0.126 | 0.152 | 0.155
COR-L 105 | 0.4 | 0.438 | 0.44 | 0.427 | 0.561 | 0.246 | 0.261 | 0.213 | 0.303 | 0.242 | 0.556 | 1.2 | 1.14 | 0.87 | 0.614 | 0.353 | 0.223 | 0.26
NCI-H2009 | 0.196 | 0.229 | 0.169 | 0.213 | 0.681 | 0.216 | 0.18 | 0.116 | 0.195 | 0.182 | 0.0836 | 1.15 | 0.968 | 0.85 | 0.656 | 0.269 | 0.146 | 0.115
NCI-H1437 | 0.306 | 0.221 | 0.161 | 0.225 |  | 0.255 | 0.128 | 0.0812 | 0.449 | 0.249 | 0.0658 | 0.269 | 0.271 | 0.208 | 0.262 | 0.43 | 0.25 | 0.108
PC-3 [JPC-3] | 0.562 | 0.582 | 0.576 | 0.509 | 0.986 | 0.723 | 0.559 | 0.478 | 0.655 | 0.446 | 0.242 | 0.987 | 1.02 | 1.02 | 0.751 |  |  | 0.271
NCI-H1703 |  |  |  |  | 0.561 | 0.17 | 0.146 | 0.083 | 0.223 | 0.191 | 0.114 |  |  |  |  | 0.291 | 0.175 | 0.163
NCI-H1944 | 0.306 | 0.319 | 0.252 | 0.214 | 1.39 | 0.696 | 0.472 | 0.367 | 0.295 | 0.26 | 0.184 | 0.523 | 0.527 | 0.249 | 0.179 |  |  | 0.231
NCI-H2085 | 0.434 | 0.504 | 0.473 | 0.5 | 0.745 | 0.541 | 0.38 | 0.337 | 0.369 | 0.282 | 0.226 | 0.886 | 0.893 | 0.857 | 0.599 | 0.502 | 0.261 | 0.351
EBC-1 |  |  |  |  | 0.738 | 0.181 | 0.122 | 0.111 | 0.167 | 0.126 | 0.139 |  |  |  |  | 0.523 | 0.112 | 0.154
ABC-1 | 0.749 | 0.794 | 0.883 | 0.49 | 0.195 | 0.145 | 0.108 | 0.0957 | 0.256 | 0.112 | 0.0638 |  |  |  |  | 0.209 | 0.164 | 0.0906
NCI-H1650 | 0.275 | 0.379 | 0.31 | 0.236 |  |  |  |  | 0.284 | 0.138 | 0.107 | 0.362 | 0.335 | 0.353 | 0.286 |  | 0.141 | 0.15
NCI-H322M |  |  |  |  | 1.12 | 0.56 | 0.427 | 0.458 | 0.683 | 0.312 | 0.252 | 0.602 | 0.598 | 0.549 | 0.512 | 0.648 | 0.384 | 0.309
NCI-H1563 |  |  |  |  | 0.752 | 0.733 | 0.654 | 0.478 | 0.749 | 0.577 | 0.433 | 0.711 | 0.924 | 0.786 | 0.732 | 0.611 | 0.594 | 0.498
SW 900 | 0.481 | 0.473 | 0.497 | 0.416 |  |  |  |  |  |  |  | 0.468 | 0.491 | 0.518 | 0.385 |  |  | 
NCI-H1299 |  |  |  |  | 0.785 | 0.206 | 0.143 | 0.113 | 0.121 | 0.109 | 0.0455 |  |  |  |  | 0.305 | 0.119 | 0.0457
A549 |  |  |  |  | 0.366 | 0.0839 | 0.0873 | 0.0598 | 0.259 | 0.0679 | 0.0434 |  |  |  |  | 0.227 | 0.0929 | 0.061
NCI-H2170 | 0.407 | 0.368 | 0.268 | 0.249 |  |  |  |  | 0.302 | 0.232 | 0.113 | 0.363 | 0.266 | 0.242 | 0.255 |  | 0.165 | 0.151
NCI-H2342 | 0.497 | 0.543 | 0.536 | 0.518 |  |  |  |  |  |  |  | 0.744 | 0.84 | 0.776 | 0.725 |  |  | 
Calu-6 |  |  |  |  | 0.92 | 0.3 | 0.0858 | 0.0592 | 0.584 | 0.222 | 0.0441 |  |  |  |  | 0.776 | 0.298 | 0.0573
ChaGo-K-1 | 0.958 | 0.914 | 0.803 | 0.51 |  |  |  |  | 0.692 | 0.52 |  | 0.252 | 0.262 | 0.26 | 0.261 |  |  | 0.244
NCI-H596 |  |  |  |  | 1.34 | 0.854 | 0.385 | 0.148 | 0.407 | 0.198 | 0.105 | 0.547 | 0.524 | 0.486 | 0.435 | 0.854 | 0.222 | 0.129
